The OligoGym collection
HELM strings list units from the 5' end as sugar, base in round brackets, then linkage (d deoxyribose, r ribose, m 2'-O-methyl, p phosphodiester). Strings are as the collection lists them; they lack the last nucleoside at the 3' end of the tested compound. [moe] = 2'-O-(2-methoxyethyl) (MOE); [sp] = phosphorothioate linkage; [m5C] = 5-methylcytosine

Target: GFAP
Test: mouse, dose not given
Conditions: ASO

Work on “RNA1{[moe](A)[sp].[moe](G)p.[moe]([m5C])p.[moe](A)p.[moe](T)[sp].d(T)[sp].d(T)[sp].d(G)[sp].d(T)[sp].d([m5C])[sp].d(T)[sp].d(T)[sp].d(T)[sp].[moe](A)p.[moe](T)p.[moe](T)[sp].[moe](T)}$$$$ (last 3' nucleoside missing)” yielded a 3 h FOB score of 3 score 0-7.

In the case of “RNA1{[moe](T)[sp].[moe]([m5C])p.[moe](A)p.[moe]([m5C])p.[moe](A)p.[moe](T)p.d(T)[sp].d([m5C])[sp].d(A)[sp].d([m5C])[sp].d(T)[sp].d(A)[sp].d(A)[sp].d(T)[sp].d(A)[sp].d(T)[sp].[moe](T)p.[moe](T)[sp].[moe](A)}$$$$ (last 3' nucleoside missing)”, the 3 h FOB score was 0 score 0-7.

In the case of “RNA1{[moe]([m5C])[sp].[moe]([m5C])p.[moe]([m5C])p.[moe](T)p.[moe]([m5C])[sp].d(T)[sp].d(T)[sp].d([m5C])[sp].d([m5C])[sp].d(T)[sp].d([m5C])[sp].d([m5C])[sp].d(A)[sp].d(G)[sp].d([m5C])[sp].[moe]([m5C])p.[moe](G)p.[moe]([m5C])[sp].[moe](G)}$$$$ (last 3' nucleoside missing)”, the 3 h FOB score was 5 score 0-7.

Substance “RNA1{[moe](G)[sp].[moe](G)p.[moe]([m5C])p.[moe](A)p.d([m5C])[sp].d(A)[sp].d(G)[sp].d(T)[sp].d(T)[sp].d([m5C])[sp].d([m5C])[sp].d([m5C])[sp].d(A)[sp].d(G)[sp].[moe](A)p.[moe](T)p.[moe](A)p.[moe]([m5C])[sp].[moe](T)}$$$$ (last 3' nucleoside missing)” has a 3 h FOB score of 1 score 0-7.

“RNA1{[moe](T)[sp].[moe](T)p.[moe](T)p.[moe](G)p.[moe](A)p.d(G)[sp].d(A)[sp].d(T)[sp].d(A)[sp].d(T)[sp].d([m5C])[sp].d(T)[sp].d(T)[sp].d(G)[sp].d(T)[sp].[moe](G)p.[moe](A)p.[moe]([m5C])[sp].[moe]([m5C])}$$$$ (last 3' nucleoside missing)” gave a 3 h FOB score of 3 score 0-7.

Work on “RNA1{[moe](G)[sp].[moe](G)p.[moe]([m5C])p.[moe](T)p.[moe]([m5C])[sp].d(T)[sp].d([m5C])[sp].d(T)[sp].d([m5C])[sp].d(A)[sp].d(T)[sp].d([m5C])[sp].d(T)[sp].d(G)[sp].d(T)[sp].[moe]([m5C])p.[moe](A)p.[moe](A)[sp].[moe](A)}$$$$ (last 3' nucleoside missing)” yielded a 3 h FOB score of 4 score 0-7.

Work on “RNA1{[moe](G)[sp].[moe](T)p.[moe]([m5C])p.[moe](T)p.[moe]([m5C])[sp].d(A)[sp].d(G)[sp].d(T)[sp].d(T)[sp].d(T)[sp].d(T)[sp].d([m5C])[sp].d([m5C])[sp].d(T)[sp].d([m5C])[sp].[moe]([m5C])p.[moe](A)p.[moe](G)[sp].[moe]([m5C])}$$$$ (last 3' nucleoside missing)” yielded a 3 h FOB score of 0 score 0-7.

With “RNA1{[moe](A)[sp].[moe](T)p.[moe](T)p.[moe](T)p.[moe](G)p.d(G)[sp].d([m5C])[sp].d(A)[sp].d(G)[sp].d(T)[sp].d(A)[sp].d(T)[sp].d(T)[sp].d(A)[sp].d([m5C])[sp].[moe]([m5C])p.[moe](T)p.[moe]([m5C])[sp].[moe](T)}$$$$ (last 3' nucleoside missing)” the 3 h FOB score was 2 score 0-7.

“RNA1{[moe](T)[sp].[moe](T)p.[moe](T)p.[moe](G)p.[moe](T)[sp].d([m5C])[sp].d(T)[sp].d(T)[sp].d(T)[sp].d(A)[sp].d(T)[sp].d(T)[sp].d(T)[sp].d(T)[sp].d(T)[sp].[moe]([m5C])p.[moe]([m5C])p.[moe](T)[sp].[moe]([m5C])}$$$$ (last 3' nucleoside missing)” gave a 3 h FOB score of 0 score 0-7.

In the case of “RNA1{[moe](G)[sp].[moe](T)p.[moe]([m5C])p.[moe](A)p.[moe]([m5C])p.[moe](A)p.d(T)[sp].d(T)[sp].d([m5C])[sp].d(A)[sp].d([m5C])[sp].d(T)[sp].d(A)[sp].d(A)[sp].d(T)[sp].d(A)[sp].[moe](T)p.[moe](T)[sp].[moe](T)}$$$$ (last 3' nucleoside missing)”, the 3 h FOB score was 0 score 0-7.
